Laboratory results taken from article PMC10165273, “Itch receptor MRGPRX4 interacts with the receptor activity–modifying proteins” (The Journal of Biological Chemistry, 2023).
Where “and” joins values, the source holds several entries; their conditions need not be identical. Equal values may be shown once. Read-outs that look alike come from different tables or passages of the source.

How the values were obtained:
MRGPRX4 + RAMP2 = molecular target: T1, MRGPRX4 + RAMP2 (Homo sapiens, UniProt Q96LA9); experiment: IP1 accumulation, MRGPRX4 coexpressed with RAMP2; format: cell-based; parameters: key to response to agonist, X4:ramp2.I:2: % IP1: mock-transfected unstimulated = 0%, fully stimulated MRGPRX4 = 100%; key to IP1 Basal / response to agonist, X4:ramp2.I:0.25 / response to agonist, X4:ramp2.I:0.5 / response to agonist, X4:ramp2.I:1: % IP1; unstimulated mock = 0%, fully stimulated MRGPRX4 = 100%; conditions: for activation at 20 µM / activation at 4 µM / activation at 0.8 µM / activation at […] / activation at 0.032 µM / activation at 100 µM: 2 h, Fig S3e, read-out: IP1 accumulation; for activation at 20 µM: log [DCA] (M) -4.69897; for activation at 4 µM: log [DCA] (M) -5.39794; for activation at 0.8 µM: log [DCA] (M) -6.09691; for activation at […]: log [DCA] (M) -6.79588; for activation at 0.032 µM: log [DCA] (M) -7.49485; for activation at 100 µM: log [DCA] (M) -4; for IP1 Basal / IP1 span (Emax minus basal) / Emax: normalized per agonist; for Emax: read-out: IP1 Emax
T1 construct: expressed in transfected cells; host or cells: HEK293T
T1 sequence (Q96LA9 whole entry): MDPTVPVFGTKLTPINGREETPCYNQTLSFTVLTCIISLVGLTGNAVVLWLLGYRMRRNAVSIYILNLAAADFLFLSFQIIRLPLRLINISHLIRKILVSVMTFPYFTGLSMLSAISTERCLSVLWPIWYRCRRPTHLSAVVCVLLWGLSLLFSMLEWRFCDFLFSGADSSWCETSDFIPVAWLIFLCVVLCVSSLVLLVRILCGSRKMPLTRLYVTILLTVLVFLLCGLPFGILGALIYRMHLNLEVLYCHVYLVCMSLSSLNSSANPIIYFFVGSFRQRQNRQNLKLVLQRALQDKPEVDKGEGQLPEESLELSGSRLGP
Protocol: HEK293T cells were transfected with 1 pg/cell of MRGPRX4 DNA, and the amount of DNA was kept constant at 2 pg/cell with pcDNA3.1(+) empty vector, unless otherwise specified. Twenty four hours after transfection, IP1 assay was performed as previously described ([51]). When applicable, cells were treated with 1 μM YM254890 (YM) or different concentrations of U73122 for 1 h prior to addition of agonist or buffer. After incubation for 2 h, HTRF reagents and IP1 calibration standards were added and incubated for 2 h in the dark at room temperature. Time-resolved fluorescence signals were read on the BioTek Synergy NEO-TRF Hybrid multi-mode reader (BioTek Instruments). All data were carried out in three independent experiments with three technical replicate each.
For RAMP DNA titration assay, HEK293T cells were cotransfected with a constant amount of 1 pg/cell of FLAG-MRGPRX4-GFP10-1D4 to which a serial dilution of 1, 0.75, 0.5, 0.25, or 0 pg/cell of each HA-RAMP-OLLAS was added. For a homogenous transfection of MRGPRX4, a master mix of MRGPRX4 DNA was made prior to addition of the RAMP DNA. […]
Data reduction, standard calibration, and transformation of HTRF data were performed as previously described ([51]). Normalized IP1 values were calculated relative to the unstimulated mock-transfected cells (set to 0%) and fully stimulated MRGPRX4 (alone if applicable) (set to 100%).

MRGPRX4 + RAMP3 = molecular target: T2, MRGPRX4 + RAMP3 (Homo sapiens, UniProt Q96LA9); experiment: IP1 accumulation, MRGPRX4 coexpressed with RAMP3; format: cell-based; parameters: key: % IP1; unstimulated mock = 0%, fully stimulated MRGPRX4 = 100%; conditions: Figure 4c-f; agonist 100µM; X4:ramp3 1:2; MRGPRX4 = 100
T2 construct: expressed in transfected cells; host or cells: HEK293T
T2 sequence (Q96LA9 whole entry): as above

[1] = MRGPRX4 + RAMP2 0.25 pg (Fig. S3)
[2] = MRGPRX4 + RAMP2 0.5 pg (Fig. S3)

With `C[C@H](CCC(=O)O)[C@H]1CC[C@H]2[C@@H]3CC[C@@H]4C[C@H](O)CC[C@]4(C)[C@H]3C[C@H](O)[C@]12C` [DCA, deoxycholic acid] the activation at 20 µM (MRGPRX4 + RAMP2; ratio MRGPRX4:RAMP2 1:0.25) was 59.5%, the activation at 4 µM (MRGPRX4 + RAMP2; ratio MRGPRX4:RAMP2 1:0.25) was 39% and the activation at 0.8 µM (MRGPRX4 + RAMP2; ratio MRGPRX4:RAMP2 1:0.25) was 28.2%. For the same compound, the activation at […] (MRGPRX4 + RAMP2; ratio MRGPRX4:RAMP2 1:0.25) was 28.2%, the activation at 0.032 µM (MRGPRX4 + RAMP2; ratio MRGPRX4:RAMP2 1:0.25) was 29.4% and the activation at 20 µM (MRGPRX4 + RAMP2; ratio MRGPRX4:RAMP2 1:0.5) was 51.9%. The activation at 4 µM (MRGPRX4 + RAMP2; ratio MRGPRX4:RAMP2 1:0.5) was 28.9%, the activation at 0.8 µM (MRGPRX4 + RAMP2; ratio MRGPRX4:RAMP2 1:0.5) was 21.9% and the activation at […] (MRGPRX4 + RAMP2; ratio MRGPRX4:RAMP2 1:0.5) was 21.5%. For the same compound, the activation at 100 µM (MRGPRX4 + RAMP2; ratio MRGPRX4:RAMP2 1:1) was 56.6%, the activation at 20 µM (MRGPRX4 + RAMP2; ratio MRGPRX4:RAMP2 1:1) was 35% and the activation at 0.8 µM (MRGPRX4 + RAMP2; ratio MRGPRX4:RAMP2 1:1) was 13.8%. The activation at […] (MRGPRX4 + RAMP2; ratio MRGPRX4:RAMP2 1:1) was 13.1%, the activation at 0.032 µM (MRGPRX4 + RAMP2; ratio MRGPRX4:RAMP2 1:1) was 13.2% and the activation at 100 µM (MRGPRX4 + RAMP2; ratio MRGPRX4:RAMP2 1:2) was 20.6%. It also gave an activation at 20 µM (MRGPRX4 + RAMP2; ratio MRGPRX4:RAMP2 1:2) of 10.3%, an activation at 4 µM (MRGPRX4 + RAMP2; ratio MRGPRX4:RAMP2 1:2) of 5.86% and an activation at […] (MRGPRX4 + RAMP2; ratio MRGPRX4:RAMP2 1:2) of 6.3%. For the same compound, the activation at 0.032 µM (MRGPRX4 + RAMP2; ratio MRGPRX4:RAMP2 1:2) was 5.62%, the “response to agonist, X4:ramp2.I:0.25” value (MRGPRX4 + RAMP2; Figure 4c-f, agonist 100µM, X4:ramp2 1:0.25, MRGPRX4 = 100) was 82.2333 and 78.588 and the “response to agonist, X4:ramp2.I:0.5” value (MRGPRX4 + RAMP2; Figure 4c-f, agonist 100µM, X4:ramp2 1:0.5, MRGPRX4 = 100) was 59.4831 and 67.5869. For the same compound, the “response to agonist, X4:ramp2.I:1” value (MRGPRX4 + RAMP2; Figure 4c-f, agonist 100µM, X4:ramp2 1:1, MRGPRX4 = 100) was 42.5729 and 40.2351, the “response to agonist, X4:ramp2.I:2” value (MRGPRX4 + RAMP2; Figure 4c-f, agonist 100µM, X4:ramp2 1:2, MRGPRX4 = 100) was 19.2213 and 20.608 and the “IP1 Basal” value (MRGPRX4 + RAMP2; [1]) was 22.40. For the same compound, the IP1 span (Emax minus basal) (MRGPRX4 + RAMP2; [1]) was 84.8%, the Emax (MRGPRX4 + RAMP2; [1]) was 107% and the “IP1 Basal” value (MRGPRX4 + RAMP2; [2]) was 17.50. The IP1 span (Emax minus basal) (MRGPRX4 + RAMP2; [2]) was 77%, the Emax (MRGPRX4 + RAMP2; [2]) was 94.5% and the “IP1 Basal” value (MRGPRX4 + RAMP2; MRGPRX4 + RAMP2 1 pg (Fig. S3)) was 11.18. The IP1 span (Emax minus basal) (MRGPRX4 + RAMP2; MRGPRX4 + RAMP2 1 pg (Fig. S3)) was 45%, the Emax (MRGPRX4 + RAMP2; MRGPRX4 + RAMP2 1 pg (Fig. S3)) was 56.2% and the “IP1 Basal” value (MRGPRX4 + RAMP2; MRGPRX4 + RAMP2 2 pg (Fig. S3)) was 5.412. For the same compound, the IP1 span (Emax minus basal) (MRGPRX4 + RAMP2; MRGPRX4 + RAMP2 2 pg (Fig. S3)) was 24.4%, the Emax (MRGPRX4 + RAMP2; MRGPRX4 + RAMP2 2 pg (Fig. S3)) was 29.9% and the “response to agonist, X4:ramp3.I:2” value (MRGPRX4 + RAMP3) was 55.7055 and 63.4334.
